Laboratory results published in publication PMC4476799, “Englerin A Agonizes the TRPC4/C5 Cation Channels to Inhibit Tumor Cell Line Proliferation” (PLoS ONE, 2015).
Where two headings read alike, the source gives them in different places.

Tested on: cancer cell lines from the cancer cell line encyclopedia (CCLE)
Assay: Cell line profiling (CLiP) proliferation experiment
Type: cell-based
Details: Homo sapiens; for IC50: read-out: Crossing Point; for EC50: read-out: Inflection Point
Procedure: Compound profiling experiment and data analysis was performed as previously described. Data was imported and plotted using the Tibco Spotfire DXP application. Lines were categorized as sensitive, intermediate and refractory as follows: Amax<-40 & Inflection Point <2 ~ Sensitive, Amax>-20 & Inflection Point >10 ~ Refractory, all else were called Intermediate. Cancer Cell line HG-U133 Plus 2 data was processed and normalized as described. […] Five sets of refractory cell lines were generated from the pool of refractory cell lines trying to match the lineage composition of the set of sensitive cell lines. The limma package was used as previously described to perform the statistical comparison.

[1] = HCC1187, cell line HCC1187, breast
[2] = HCC1954, cell line HCC1954, breast
[3] = HCT-15, cell line HCT-15, large_intestine
[4] = HCT-116, cell line HCT 116, large_intestine
[5] = HEC-1-A, cell line HEC-1-A, endometrium
[6] = HPBALL, cell line HPB-ALL, haematopoietic_and_lymphoid_tissue
[7] = Hs 294T, cell line Hs 294T, skin
[8] = Hs 695T, cell line Hs 695T, skin

**Q.** `CC(C)[C@@]12C[C@@H](O)[C@@](C)(O1)[C@@H]1CC[C@@H](C)[C@H]1[C@@H]2OC(=O)/C=C/c1ccccc1` [Englerin B] was tested. Which IC50 (HCC1143, cell line HCC1143) did it give?
**A.** > 30 µM

**Q.** And the IC50 [1]?
**A.** 13.8 µM

**Q.** What about the EC50 [1] of the same compound?
**A.** 8.08 µM

**Q.** And the IC50 (HCC1395, cell line HCC1395, breast)?
**A.** > 30 µM

**Q.** What about the IC50 (HCC1395, cell line HCC1395) of the same compound?
**A.** > 30 µM

**Q.** And the IC50 (HCC1419, cell line HCC1419, breast)?
**A.** 25.1 µM

**Q.** And the IC50 (HCC1428, cell line HCC1428, breast)?
**A.** > 30 µM

**Q.** And the IC50 (HCC1428, cell line HCC1428)?
**A.** > 30 µM

**Q.** And the IC50 (HCC1569, cell line HCC1569, breast)?
**A.** 28.7 µM

**Q.** And the IC50 (HCC1806, cell line HCC1806, breast)?
**A.** > 30 µM

**Q.** And the IC50 (HCC1806, cell line HCC1806)?
**A.** > 30 µM

**Q.** What about the IC50 (HCC1937, cell line HCC1937, breast) of the same compound?
**A.** 28.9 µM

**Q.** What about the IC50 [2] of the same compound?
**A.** 13.9 µM

**Q.** What about the EC50 [2] of the same compound?
**A.** 11.3 µM

**Q.** What about the EC50 (HCC1954, cell line HCC1954) of the same compound?
**A.** 11.3 µM

**Q.** And the IC50 (HCC2218, cell line HCC2218, breast)?
**A.** > 30 µM

**Q.** And the IC50 (HCC2218, cell line HCC2218)?
**A.** > 30 µM

**Q.** What about the IC50 [3] of the same compound?
**A.** > 30 µM

**Q.** And the EC50 [3]?
**A.** 10.4 µM

**Q.** What about the IC50 (HCT-15, cell line HCT-15) of the same compound?
**A.** > 30 µM

**Q.** And the IC50 [4]?
**A.** > 30 µM

**Q.** And the EC50 [4]?
**A.** 8.15 µM

**Q.** And the IC50 (HCT-116, cell line HCT 116)?
**A.** > 30 µM

**Q.** What about the IC50 [5] of the same compound?
**A.** > 30 µM

**Q.** And the EC50 [5]?
**A.** 16.7 µM

**Q.** And the IC50 (HEC-1-A, cell line HEC-1-A)?
**A.** > 30 µM

**Q.** And the IC50 (HEL 92.1.7, cell line HEL 92.1.7, haematopoietic_and_lymphoid_tissue)?
**A.** 23.8 µM

**Q.** And the IC50 (HGC-27, cell line HGC-27, stomach)?
**A.** 10.9 µM

**Q.** What about the IC50 (HMCB, cell line HMCB, skin) of the same compound?
**A.** > 30 µM

**Q.** And the EC50 (HMCB, cell line HMCB, skin)?
**A.** 18.8 µM

**Q.** What about the IC50 (HMCB, cell line HMCB) of the same compound?
**A.** > 30 µM

**Q.** And the EC50 (HMCB, cell line HMCB)?
**A.** 18.8 µM

**Q.** What about the IC50 (HPBALL, cell line HPB-ALL (haematopoietic_and_lymphoid_tissue, acute_lymphoblastic_T_cell_leukaemia)) of the same compound?
**A.** 17.5 µM

**Q.** And the IC50 [6]?
**A.** 17.5 µM

**Q.** And the EC50 [6]?
**A.** 11.7 µM

**Q.** And the IC50 (HRT-18, cell line HRT-18, large_intestine)?
**A.** 20.1 µM

**Q.** And the IC50 (HT55, cell line HT55, large_intestine)?
**A.** > 30 µM

**Q.** And the IC50 (HT55, cell line HT55)?
**A.** > 30 µM

**Q.** And the IC50 (HT-29, cell line HT-29, large_intestine)?
**A.** 19 µM

**Q.** What about the IC50 (HT-144, cell line HT-144, skin) of the same compound?
**A.** > 30 µM

**Q.** What about the IC50 (HT-144, cell line HT-144) of the same compound?
**A.** > 30 µM

**Q.** What about the IC50 (HT-1080, cell line HT-1080, soft_tissue) of the same compound?
**A.** > 30 µM

**Q.** And the IC50 (HT-1080, cell line HT-1080)?
**A.** > 30 µM

**Q.** And the IC50 (HT-1376, cell line HT-1376, urinary_tract)?
**A.** > 30 µM

**Q.** What about the IC50 (HT-1376, cell line HT-1376) of the same compound?
**A.** > 30 µM

**Q.** And the IC50 [7]?
**A.** > 30 µM

**Q.** What about the EC50 [7] of the same compound?
**A.** 22.6 µM

**Q.** What about the IC50 (Hs 294T, cell line Hs 294T) of the same compound?
**A.** > 30 µM

**Q.** And the IC50 [8]?
**A.** > 30 µM

**Q.** And the EC50 [8]?
**A.** 21.6 µM

**Q.** And the IC50 (Hs 695T, cell line Hs 695T)?
**A.** > 30 µM

**Q.** What about the IC50 (Hs-578T, cell line Hs 578T, breast) of the same compound?
**A.** > 30 µM

**Q.** What about the IC50 (Hs-578T, cell line Hs 578T) of the same compound?
**A.** > 30 µM

**Q.** And the IC50 (HuH-1, cell line huH-1, liver)?
**A.** > 30 µM

**Q.** And the EC50 (HuH-1, cell line huH-1, liver)?
**A.** 7.57 µM

**Q.** And the IC50 (HuH-1, huH-1 (liver))?
**A.** > 30 µM

**Q.** And the IC50 (HuP-T3, cell line HUP-T3, pancreas)?
**A.** > 30 µM

**Q.** And the IC50 (HuP-T3, cell line HUP-T3)?
**A.** > 30 µM

**Q.** And the IC50 (IGR-1, IGR-1 cells)?
**A.** > 30 µM

**Q.** What about the IC50 (IGR-1, cell line IGR-1, skin) of the same compound?
**A.** > 30 µM

**Q.** And the IC50 (IGR-37, cell line IGR-37, skin)?
**A.** 24.3 µM

**Q.** What about the IC50 (IGROV-1, IGROV1 cells) of the same compound?
**A.** > 30 µM

**Q.** And the IC50 (IGROV-1, cell line IGROV1, ovary)?
**A.** > 30 µM

**Q.** What about the IC50 (IMR-32, IMR-32) of the same compound?
**A.** 24.2 µM

**Q.** And the EC50 (IMR-32, IMR-32)?
**A.** 24.2 µM

**Q.** And the IC50 (IMR-32, IMR-32 cells)?
**A.** 24.2 µM

**Q.** And the EC50 (IMR-32, IMR-32 cells)?
**A.** 24.2 µM

**Q.** And the IC50 (IPC-298, IPC-298)?
**A.** > 30 µM

**Q.** What about the EC50 (IPC-298, IPC-298) of the same compound?
**A.** 1.04 µM

**Q.** What about the IC50 (IPC-298, cell line IPC-298) of the same compound?
**A.** > 30 µM

**Q.** What about the IC50 (Ishikawa, Ishikawa (Heraklio) 02 ER- cells) of the same compound?
**A.** > 30 µM

**Q.** And the IC50 (Ishikawa, Ishikawa (Heraklio) 02 ER-)?
**A.** > 30 µM

**Q.** And the IC50 (J82, J82)?
**A.** > 30 µM

**Q.** What about the EC50 (J82, J82) of the same compound?
**A.** 20.1 µM

**Q.** What about the IC50 (JIMT-1, JIMT-1) of the same compound?
**A.** > 30 µM

**Q.** And the IC50 (JIMT-1, JIMT-1 cells)?
**A.** > 30 µM

**Q.** And the IC50 (JJN-3, JJN-3)?
**A.** > 30 µM

**Q.** And the IC50 (JJN-3, cell line JJN-3)?
**A.** > 30 µM

**Q.** What about the IC50 (JVM-2, JVM-2) of the same compound?
**A.** 21 µM

**Q.** And the EC50 (JVM-2, JVM-2)?
**A.** 21 µM

**Q.** And the IC50 (JVM-2, JVM-2 cells)?
**A.** 21 µM

**Q.** What about the EC50 (JVM-2, JVM-2 cells) of the same compound?
**A.** 21 µM

**Q.** What about the IC50 (JVM-3, JVM-3) of the same compound?
**A.** > 30 µM

**Q.** And the IC50 (JVM-3, cell line JVM-3)?
**A.** > 30 µM

**Q.** What about the IC50 (JeKo-1, JeKo-1) of the same compound?
**A.** 8.21 µM

**Q.** And the EC50 (JeKo-1, JeKo-1)?
**A.** 7.64 µM

**Q.** And the EC50 (JeKo-1, JeKo-1 cells)?
**A.** 7.64 µM

**Q.** And the IC50 (Jurkat)?
**A.** 16.1 µM

**Q.** And the IC50 (K562, K-562)?
**A.** > 30 µM

**Q.** What about the EC50 (K562, K-562) of the same compound?
**A.** 9.57 µM

**Q.** What about the IC50 (K562, cell line K-562) of the same compound?
**A.** > 30 µM

**Q.** And the IC50 (KARPAS-299, KARPAS-299)?
**A.** 13.2 µM
